The values below come from ChEMBL document CHEMBL1150403, “Synthesis of Hsp90 inhibitor dimers as potential antitumor agents” (Bioorg Med Chem, 2008).

Common to all, as to assay type: functional, cell-based
In one assay the test system is SK-BR-3. Kind of assay: Cytotoxicity against human SKBR3 cells after 24 hrs. The conditions noted are these: SK-BR-3, 24 h.
Assay [1] deals with MCF7. Nature of the assay: Cytotoxicity against human MCF7 cells after 24 hrs. The conditions noted are these: MCF7, 24 h.
The subject of assay [2] is MCF7. Kind of assay: Induction of Her2 degradation in human MCF7 cells by Western blotting analysis.

As for `COc1cc(Cc2nc3c(N)ncnc3n2CCCC#CCNCCCCCCCCCCCCCCCCNCC#CCCCn2c(Cc3cc(OC)c(OC)c(OC)c3)nc3c(N)ncnc32)cc(OC)c1OC`, the IC50 came out at 3.18 µM in the assay with SK-BR-3 and 1.57 µM with MCF7 [1].

`COc1cc(Cc2nc3c(N)ncnc3n2CCCC#CCO)cc(OC)c1OC`: the IC50 with SK-BR-3 and in the assay with MCF7 [1] was above 100 µM in each case.

As for `C#CCCCn1c(Cc2cc(OC)c(OC)c(OC)c2)nc2c(N)ncnc21`, the IC50 was 31.8 µM in the assay with SK-BR-3 and 45.9 µM in the assay on MCF7 [1].

For the molecule `CO[C@H]1/C=C/C=C(\C)C(=O)NC2=CC(=O)C(NCCCCNC3=C4C[C@@H](C)C[C@H](OC)[C@H](O)[C@@H](C)/C=C(\C)[C@H](OC(N)=O)[C@@H](OC)/C=C/C=C(\C)C(=O)NC(=CC3=O)C4=O)=C(C[C@@H](C)C[C@H](OC)[C@H](O)[C@@H](C)/C=C(\C)[C@@H]1OC(N)=O)C2=O`, the results for the IC50 with SK-BR-3 and in the assay with MCF7 [1] were 0.258 µM and 1.11 µM, respectively.

For `COc1cc(Cc2nc3c(N)ncnc3n2CCCC#CCNCCCCNCC#CCCCn2c(Cc3cc(OC)c(OC)c(OC)c3)nc3c(N)ncnc32)cc(OC)c1OC`, the IC50 with SK-BR-3 and in the assay with MCF7 [1] was above 100 µM each time.

With `COc1cc(Cc2nc3c(N)ncnc3n2CCCC#CCNCCCCCCCCCCCCNCC#CCCCn2c(Cc3cc(OC)c(OC)c(OC)c3)nc3c(N)ncnc32)cc(OC)c1OC`, the values for the IC50 in the assay on SK-BR-3 and with MCF7 [1] were 5.73 µM and 4.68 µM, respectively. For the same molecule, the Activity entry in the assay on MCF7 [2] was “Dose-dependent effect”.

As to `C[C@@H]1C[C@H]2O[C@@H]2/C=C\C=C\C(=O)Cc2c(Cl)c(O)cc(O)c2C(=O)O1` [RADICICOL], the values for the IC50 in the assay on SK-BR-3 and with MCF7 [1] were 0.00364 µM and 0.0892 µM, respectively.

For `CO[C@H]1/C=C/C=C(\C)C(=O)NC2=CC(=O)C(NCCCCCCCCCCCCNC3=C4C[C@@H](C)C[C@H](OC)[C@H](O)[C@@H](C)/C=C(\C)[C@H](OC(N)=O)[C@@H](OC)/C=C/C=C(\C)C(=O)NC(=CC3=O)C4=O)=C(C[C@@H](C)C[C@H](OC)[C@H](O)[C@@H](C)/C=C(\C)[C@@H]1OC(N)=O)C2=O`, the IC50 with SK-BR-3 came out at 0.296 µM; in the assay on MCF7 [1] it was 0.628 µM.

On to `COc1cc(Cc2nc3c(N)ncnc3n2CCCC#CCNCCCCCCCCCCCCCCCCCCCCNCC#CCCCn2c(Cc3cc(OC)c(OC)c(OC)c3)nc3c(N)ncnc32)cc(OC)c1OC`, for which the IC50 with SK-BR-3 is 1.31 µM; with MCF7 [1] it was 1.46 µM.

`COc1cc(Cc2nc3c(N)ncnc3n2CCCC#CCNCCCCCCCCCCCCN)cc(OC)c1OC`: the figures for the IC50 with SK-BR-3 and in the assay with MCF7 [1] were 13.1 µM and 55.1 µM, respectively.

For `CO[C@H]1/C=C/C=C(\C)C(=O)NC2=CC(=O)C(NCCCCCCCCCCCCCCCCNC3=C4C[C@@H](C)C[C@H](OC)[C@H](O)[C@@H](C)/C=C(\C)[C@H](OC(N)=O)[C@@H](OC)/C=C/C=C(\C)C(=O)NC(=CC3=O)C4=O)=C(C[C@@H](C)C[C@H](OC)[C@H](O)[C@@H](C)/C=C(\C)[C@@H]1OC(N)=O)C2=O`, the IC50 in the assay on SK-BR-3 came to 0.15 µM; in the assay with MCF7 [1], 0.431 µM.

`COc1cc(Cc2nc3c(N)ncnc3n2CCCC#CCNCCCCCCCCNCC#CCCCn2c(Cc3cc(OC)c(OC)c(OC)c3)nc3c(N)ncnc32)cc(OC)c1OC`: the IC50 amounted to 85.7 µM in the assay on SK-BR-3 and 30.6 µM in the assay on MCF7 [1].

As a reminder, the IC50 is the concentration that gives 50% inhibition. A high value points to lower potency.
